Assay results from US6486126B1, “Antioxidant activity in SDG metabolites” (University of Saskatchewan Technologies Incorporated, priority 1999, dated 2002).
Where two headings read alike, the source gives them in different places.

Experiments:
[1] = tested on: unstimulated blood (BL); test: Integrated luminol-dependent chemiluminescence of unstimulated blood; assay type: cell-based, human; settings: 2.5 mg/ml, mean ± SE from 16 samples
Method: (§1) Antioxidant activity of SDG, SECO, ED, EL and vitamin E (alpha-tochopherol phosphate) was measured using the ability of these compounds to reduce the chemiluminescence of activated PMNLs [polymorphonuclear leukocytes chemiluminescence (PMNL-CL)]. Activated polymorphonuclear leukocytes produce superoxide anion (O2^−), hydrogen peroxide (H2O2), hydroxyl radical (.OH) and singlet oxygen (^1O2). Chemiluminescence is amplified by luminol, which is converted to an excited aminophthalate ion in the presence of oxidizing species like O2^−, H2O2, .OH and ^1O2. Luminol-dependent CL reflects the amount of activated oxygen species generated from activated phagocytes, thus, this method can be used to monitor the reactive oxygen species produced by PMNLs. Agents which scavenge O2^−, H2O2, .OH and ^1O2 would reduce PMNL-CL. The SDG, SECO, ED and EL were all obtained from Agriculture and Agri-Food Canada, Saskatoon, Saskatchewan.
Venous blood from healthy subjects, after their informed consent, was collected in ethylenediamine tetraacetic acid (EDTA)-containing tubes for PMNL counts, and PMNL-CL. PMNL and WBC counts were made using Technicon H6000 system (Technicon Instruments, Tarrytown, N.Y.). PMNL-CL a measure of reactive oxygen species produced by PMNLs was measured by a method described in Prasad et al., Effect of polymorphonuclear leukocyte-derived oxygen free radicals and hypochlorous acid or cardiac function and some biochemical parameters, Am. Heart J. 119:538-550, 1990. Blood (0.05 ml) was added to a glass tube containing Hank's balanced salt solution (HBSS) buffer (pH 7.40) and luminol at a final concentration of 10^−4 M. To assess the ability of various test materials in the varying amounts (1.0, 2.5, 5.0 and 10 mg/ml) in the powder form, were each added to the test tube containing blood, shaken well and incubated for 15 minutes at room temperature. The final volume of the mixture in these tubes was 0.5 ml. All the test tubes were placed in a luminometer for 5 min at 37° C., and phagocytosis was initiated by the addition of 0.1 ml (10 mg/ml) of opsonized zymosan prepared by previously described method (Prasad et al., 1990). The chemiluminescence was monitored with an Auto Lumat, LB953 luminometer (Egg Berthold, Berthold Analytical Instrument Inc., 472 Amherst Street, Nashua, N.H., 03063) for 3 seconds every 2 or 3 minutes (depending on the sample number) for a period of 60 minutes. The integrated area under the curve gives the total luminal-dependent chemiluminescent response during the period of monitoring, which represents the oxygen derived CL. […]
The results are expressed as mean±SE and n=sample size. […]

[2] = tested on: zymosan-stimulated polymorphonuclear leukocytes; test: Luminol-dependent chemiluminescence of zymosan-stimulated PMNLs in blood (PMNL-CL); assay type: cell-based, human; settings: for antioxidant potency as compared to vitamin E: ratio of inhibition of PMNL-CL at 2.5 mg/ml, relative to vitamin E; for inhibition at 1000 µg/mL / inhibition at 2500 µg/mL / inhibition at 5000 µg/mL: Homo sapiens, Leukocyte
Method: as §1
Venous blood from healthy subjects, after their informed consent, was collected in ethylenediamine tetraacetic acid (EDTA)-containing tubes for PMNL counts, and PMNL-CL. PMNL and WBC counts were made using Technicon H6000 system (Technicon Instruments, Tarrytown, N.Y.). PMNL-CL a measure of reactive oxygen species produced by PMNLs was measured by a method described in Prasad et al., Effect of polymorphonuclear leukocyte-derived oxygen free radicals and hypochlorous acid or cardiac function and some biochemical parameters, Am. Heart J. 119:538-550, 1990. Blood (0.05 ml) was added to a glass tube containing Hank's balanced salt solution (HBSS) buffer (pH 7.40) and luminol at a final concentration of 10^−4 M. To assess the ability of various test materials in the varying amounts (1.0, 2.5, 5.0 and 10 mg/ml) in the powder form, were each added to the test tube containing blood, shaken well and incubated for 15 minutes at room temperature. The final volume of the mixture in these tubes was 0.5 ml. All the test tubes were placed in a luminometer for 5 min at 37° C., and phagocytosis was initiated by the addition of 0.1 ml (10 mg/ml) of opsonized zymosan prepared by previously described method (Prasad et al., 1990). The chemiluminescence was monitored with an Auto Lumat, LB953 luminometer (Egg Berthold, Berthold Analytical Instrument Inc., 472 Amherst Street, Nashua, N.H., 03063) for 3 seconds every 2 or 3 minutes (depending on the sample number) for a period of 60 minutes. The integrated area under the curve gives the total luminal-dependent chemiluminescent response during the period of monitoring, which represents the oxygen derived CL. The difference in the integrated area under zymosan-activated in the absence and in the presence of various compounds under investigation is designated as particular compound inhibitable oxygen derived radical CL. The unit for chemiluminescence is in counts per minute (cpm). The integrated area under the curve is in cpm.m. The unit for chemiluminescence is cpm.m.10^−6 PMNLs because the chemiluminescence is expressed in terms of 10^−6 PMNL counts. The peak chemiluminescence is cpm 10^−6 PMNLs.
The results are expressed as mean±SE and n=sample size. One-way Analysis of Variance (ANOVA) followed by Scheffe test was used to derive differences between different groups. A “p” value of less than 0.05 was considered significant.

[3] = 1.0 mg/ml, concentration-response (FIGS. 4-8)
[4] = 2.5 mg/ml, concentration-response (FIGS. 4-8)
[5] = 5.0 mg/ml, concentration-response (FIGS. 4-8)
[6] = 10.0 mg/ml, concentration-response (FIGS. 4-8)
[7] = zymosan-stimulated, 2.5 mg/ml, comparison experiment (FIG. 3)
[8] = 2.5 mg/ml, concentration-response (FIGS. 4-8), read-out: inhibition of zymosan-stimulated PMNL-CL
[9] = zymosan-stimulated, 2.5 mg/ml, comparison experiment (FIG. 3), read-out: percentage inhibition of PMNL-CL

SMILES	Integrated CL of unstimulated blood (BL) in the presence of compound [1]	inhibition of zymosan-stimulated PMNL-CL [2, 3] [%]	inhibition of zymosan-stimulated PMNL-CL [2, 4] [%]	inhibition of zymosan-stimulated PMNL-CL [2, 5] [%]	inhibition of zymosan-stimulated PMNL-CL [2, 6] [%]	antioxidant potency as compared to vitamin E [2] [times]	antioxidant potency relative to SDG (times more potent than SDG) [2] [times]	percentage inhibition of PMNL-CL [2, 7] [%]	inhibition at 1000 µg/mL [2, 3] [%]	inhibition at 2500 µg/mL [2, 8] [%]	inhibition at 5000 µg/mL [2, 5] [%]	inhibition at 2500 µg/mL [2, 9] [%]	effect on zymosan-stimulated PMNL-CL (in words) ([2]; 1.0 mg/ml)
COc1cc(C[C@@H](CO)[C@H](CO)Cc2ccc(O)c(OC)c2)ccc1O [SECO, secoisolariciresinol]	0.878 ± 0.023 ×10^6 cpm · m · 10^−6 PMNLs	78	93	99.5	100	4.86	3.82	91.2					
COc1cc(C[C@@H](CO[C@@H]2O[C@H](CO)[C@@H](O)[C@H](O)[C@H]2O)[C@H](CO[C@@H]2O[C@H](CO)[C@@H](O)[C@H](O)[C@H]2O)Cc2ccc(O)c(OC)c2)ccc1O [SDG, secoisolariciresinol diglucoside, reference compound]	2.463 ± 0.159 ×10^6 cpm · m · 10^−6 PMNLs	24	30	48		1.27		23.87					
O=C1OC[C@H](Cc2cccc(O)c2)[C@H]1Cc1cccc(O)c1 [EL, enterolactone]	2.177 ± 0.138 ×10^6 cpm · m · 10^−6 PMNLs					4.35	3.43		81	86	83	81.6	
Cc1c(C)c2c(c(C)c1OP(=O)(O)O)CC[C@@](C)(CCC[C@H](C)CCC[C@H](C)CCCC(C)C)O2 [vitamin E, alpha-tochopherol phosphate, reference compound]			17	88	97			18.75					increase in the PMNL-CL
OC[C@H](Cc1cccc(O)c1)[C@H](CO)Cc1cccc(O)c1 [ED, enterodiol]	1.073 ± 0.048 ×10^6 cpm · m · 10^−6 PMNLs					5.02	3.95		82	96	95	94.2	
